Key:
iAMs = test: Bulk RNA sequencing of cardiomyogenically differentiated iAMs; format: cell-based, rat; conditions: EF-1 32 µM, 16 h, log2-fold change ≥0.58, P adj <0.05
Experimental: iAMs were seeded at a density of 6 ×10^6 cells/mL in differentiation medium in 75-cm^2 cell culture flasks (Greiner Bio-One, 658175) and incubated for 9 days (d0 = day of seeding). HCF were seeded at a density of 3 × 10^6 cells/mL in fibroblast medium in 75-cm^2 cell culture flasks. […] Next, cells were lysed using 350 µL buffer RLT (Qiagen) supplemented with β-mercaptoethanol (100:1; Merck, 444203). Total RNA was isolated using the RNeasy Micro Kit (Qiagen, 74104) according to the manufacturer’s protocol, with an extra step of DNase digestion. The concentration and quality of RNA were determined using a Qubit fluorometer (Thermo Fisher Scientific) and 2100 Agilent BioAnalyzer (Agilent Technologies), respectively. Samples with an RNA integrity number >7 were used for library preparation. Sequencing libraries were prepared by Genewiz/Azenta (Leipzig) on cDNA prepared from polyadenylated mRNA. Libraries were sequenced using a NovaSeq 6000 (Illumina) with a read length of 2 ×150 bp.
Gene expression was quantified at the transcript level using Salmon (v1.10.0)[60], with the validatMappings and -gcBias parameters switched on, to the Rnor_6.0 or GRCh38 transcriptome. […] Functional enrichment of DEGs was determined using a hypergeometric test against the Gene Ontology database by using the ClueGO (v2.5.7)[64] module of Cytoscape (v3.9.1)[65] with Benjamini–Hochberg adjusted (FDR) P < 0.05. […]

Erbb4-null mice = test: AngII-treated Erbb4-null mice, echocardiography; format: in vivo, mouse; conditions: AngII/EF-1
Description: Floxed Erbb4 mice (Erbb4^f/f; C57BL/6N; 129-Erbb4tm1Fej/Mmucd, MMRRC, #010439-UCD) were crossed with CAGGCre-ER^TM mice (Jackson Laboratory, 004682) containing the Tg(CAG-cre/Esr1*)5Amc transgene that expresses Cre recombinase under the control of a chicken beta actin promoter/enhancer coupled to the human cytomegalovirus immediate-early gene enhancer, resulting in expression of tamoxifen-inducible Cre-ERT in most cell types. To induce Cre recombinase-mediated deletion of Erbb4, eleven-week-old female and male iCAGGCre-ER^TM/Erbb4^f/f mice were intraperitoneally injected with tamoxifen (Merck, T5648; 10 mg/kg; in corn oil) daily for 5 consecutive days.
Echocardiography was performed using the Vevo F2-LAZRX (FUJIFILM VisualSonics) and UHF57x probe. Mice were anesthetized with 1.5% isoflurane (Alvira, BE-V512222). Parasternal long-axis B-mode images and M-mode images were obtained and analyzed using VevoLAB software (FUJIFILM VisualSonics, Version 5.7.1). For the AngII experiments, measurements were obtained through analysis of the short-axis M-mode. For the MI experiments, measurements were obtained through analysis of the parasternal long-axis B-mode, of which the area and end-volume of the left ventricular cavity in diastole and systole were determined by tracing the endocardial border. Acquisitions, measurements and analyses were performed blinded.
Supplementary Table 2. Echocardiographic parameters. Echocardiographic parameters obtained through the analysis of the M-mode short-axis views. (a) Male and (b) female wild-type mice treated […]
mice in EF-1 group). (c) Male wild-type mice treated with AngII and NA-1 (n=5 male mice in Ctrl and AngII/Veh group, n=4 male mice in AngII/NA -1 group). (d) Comparison between wild-type and Erbb4-null mice (n=10 male and female wild -type mice and n=6 male and female Erbb4-null mice). (e) Male […]
Echocardiographic parameters were measured weekly
(indicated by ‘T’). All data are presented as mean (value of individual mice) ± SD, two-tailed unpaired […]
1 groups. Source data are provided as a Source Data file. AngII, angiotensin II; ANOVA, analysis of variance; Ctrl, control; DOX, doxorubicin; EF, ejection fraction; ERBB4, erythroblastic leukemia viral oncogene homolog 4; FS, fractional shortening; IVSd, interventricular septum thickness in diastole; IVSs, interventricular septum thickness in systole; LVIDd, left ventricular internal diameter in diastole; LVIDs, left ventricular internal diameter in systole; LVPWd, left ventricular posterior wall thickness in diastole; LVPWs, left ventricular posterior wall thickness in systole; MI, myocardial infarction; NA, non-activating pharmacophore-containing compound; SD, standard variation; Veh, vehicle.

[1] = Male and female Erbb4-null mice
[2] = male and female Erbb4-null mice, mean ± SD

O=C(NC1CC1)C(Sc1nc2ccccc2c(=O)n1C1CCCC1)c1ccccc1 (centres unmarked) [EF-1]
number of significantly downregulated genes compared to Veh (iAMs): 1120 | number of significantly upregulated genes compared to Veh (iAMs): 354 | FS (Erbb4-null mice; [1]): 5.8 ± 3.5% | IVSd (Erbb4-null mice; [1]): 1.0 ± 0.3 mm | IVSs (Erbb4-null mice; [1]): 1.2 ± 0.5 mm | LVIDd (Erbb4-null mice; [1]): 5.8 ± 0.3 mm | LVIDs (Erbb4-null mice; [1]): 5.5 ± 0.5 mm | LVPWd (Erbb4-null mice; [1]): 1.0 ± 0.4 mm | LVPWs (Erbb4-null mice; [1]): 1.1 ± 0.4 mm | FS (Erbb4-null mice; [2]): 5.8 ± 3.5% | IVSd (Erbb4-null mice; [2]): 1.0 ± 0.3 mm | IVSs (Erbb4-null mice; [2]): 1.2 ± 0.5 mm | LVIDd (Erbb4-null mice; [2]): 5.8 ± 0.3 mm | LVIDs (Erbb4-null mice; [2]): 5.5 ± 0.5 mm | LVPWd (Erbb4-null mice; [2]): 1.0 ± 0.4 mm | LVPWs (Erbb4-null mice; [2]): 1.1 ± 0.4 mm | half-life with human liver microsomes: > 6 h
